Results from ChEMBL document CHEMBL1201862, “PubChem BioAssay data set” (2004).
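All cell lines were grown in 96-well plates and treated with compound for 48 hours. The concentration for 50% growth inhibition is given as GI50.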 Active and inactive are the calls of the source. Cut-off read from the data, not from the text of the source: active = GI50 up to about 1.1 µM and inactive = higher.

What was measured:
Experiment in all cases: NCI tumour cell line growth inhibition, 48 h
DMS-114 = test system: DMS-114
HOP-18 = test system: HOP-18
KM-20L2 = test system: KM-20L2
LXFL 529 = test system: LXFL 529
M19-MEL = test system: M19-MEL
SNB-78 = test system: SNB-78
XF498 = test system: XF498
DMS-273 = test system: DMS-273
RXF 631 = test system: RXF 631

| Compound | GI50 (DMS-114) | GI50 (HOP-18) | GI50 (KM-20L2) | GI50 (LXFL 529) | GI50 (M19-MEL) | GI50 (SNB-78) | GI50 (XF498) | GI50 (DMS-273) | GI50 (RXF 631) |
| --- | --- | --- | --- | --- | --- | --- | --- | --- | --- |
| O=C(/C=C/c1ccccc1)/C=C/c1ccccc1O | 17.8 µM (inactive) | 0.488 µM (active) | 19.1 µM (inactive) | 16.8 µM (inactive) | 17.9 µM (inactive) | 37.3 µM (inactive) | 49.1 µM (inactive) |  |  |
| CCN(CC)c1c(C(=O)/C=C/c2ccc(OC)cc2)c(-c2ccccc2)nn(C)c1=O | 13.4 µM (inactive) | 22.2 µM (inactive) | 15.4 µM (inactive) | 10.7 µM (inactive) | 6.34 µM (inactive) | 25 µM (inactive) |  | 2.37 µM (inactive) | 20.6 µM (inactive) |
| COC(=O)C1=C(c2cc(OC)c(OC)c(OC)c2)OC(c2cc(OC)c(OC)c(OC)c2)C1COC(C)=O (stereo unspecified) | 34.7 µM (inactive) |  | 71.6 µM (inactive) | 34.4 µM (inactive) | 32.1 µM (inactive) | 45.7 µM (inactive) | 32.4 µM (inactive) | 25.6 µM (inactive) | 17.4 µM (inactive) |
| c1ccc(-c2[nH]c(-c3ccccc3)c(-c3cnccn3)c2-c2cnccn2)cc1 | > 100 µM (inactive) | > 100 µM (inactive) | > 100 µM (inactive) |  | > 100 µM (inactive) | > 100 µM (inactive) | 95.7 µM (inactive) | > 100 µM (inactive) |  |
| Nc1nc2c(nnn2C2C=C(CO)C(O)C2O)c(=O)[nH]1 (stereo unspecified) | > 100 µM (inactive) | > 100 µM (inactive) | > 100 µM (inactive) | > 100 µM (inactive) | > 100 µM (inactive) | 95.3 µM (inactive) | > 100 µM (inactive) | > 100 µM (inactive) |  |
| CCc1cccc(CC)c1NC(=O)/C(Cl)=C(/Cl)C(=O)O | 23.2 µM (inactive) | 24.3 µM (inactive) | 43.8 µM (inactive) | 13.6 µM (inactive) | 31.6 µM (inactive) | 37.7 µM (inactive) | 22.6 µM (inactive) | 50 µM (inactive) |  |
| CC1=NN(C(=O)Cc2ccccc2)C(=O)/C1=C\c1ccc(O)cc1 | > 100 µM (inactive) |  | > 100 µM (inactive) | > 100 µM (inactive) | > 100 µM (inactive) | 36.8 µM (inactive) | > 100 µM (inactive) |  |  |
| COC(=O)c1ccc(Cc2ccc(C(=O)OC)o2)o1 |  | 38.5 µM (inactive) | > 378 µM (inactive) | > 378 µM (inactive) | > 378 µM (inactive) |  |  | > 378 µM (inactive) | > 378 µM (inactive) |
| Oc1ncnc2c1CCCN2 | > 100 µM (inactive) | 16.5 µM (inactive) | > 100 µM (inactive) | > 100 µM (inactive) | > 100 µM (inactive) | > 100 µM (inactive) |  |  |  |
| NNC(=S)N/N=C(\c1nc2ccc(Cl)cc2nc1O)C(O)c1ccc(Cl)cc1Cl (stereo unspecified) | > 100 µM (inactive) | > 100 µM (inactive) | > 100 µM (inactive) | > 100 µM (inactive) | > 100 µM (inactive) | > 100 µM (inactive) | > 100 µM (inactive) | > 100 µM (inactive) | > 100 µM (inactive) |
| O=C(O)CN(c1ccc(Cl)cc1)S(=O)(=O)c1ccccc1 |  | > 100 µM (inactive) | > 100 µM (inactive) | > 100 µM (inactive) | > 100 µM (inactive) |  | > 100 µM (inactive) | > 100 µM (inactive) | > 100 µM (inactive) |
| CN1CC(=O)N(C)c2ncn(Cc3ccccc3)c2C1=O | > 100 µM (inactive) | > 100 µM (inactive) |  | > 100 µM (inactive) | > 100 µM (inactive) | > 100 µM (inactive) | 17 µM (inactive) | > 100 µM (inactive) | 4.68 µM (inactive) |
| Clc1ccc(CN2COc3c(cc(Cl)c4cccnc34)C2)cc1 | 1.84 µM (inactive) | 3.96 µM (inactive) | 14.3 µM (inactive) | 1.36 µM (inactive) | 2.28 µM (inactive) | 4.79 µM (inactive) | 0.973 µM (active) | 1.78 µM (inactive) | 10.3 µM (inactive) |
| COC(=O)C(=O)C(C(=O)C1=NS(=O)(=O)c2cc(S(N)(=O)=O)c(Cl)cc2N1)c1nc2ccc(C(=O)c3ccccc3)cc2nc1O (stereo unspecified) |  | > 100 µM (inactive) | > 100 µM (inactive) | 38.9 µM (inactive) | > 100 µM (inactive) | 85.1 µM (inactive) | 39 µM (inactive) | > 100 µM (inactive) | 86.9 µM (inactive) |
| Cc1ccc(Nc2ccc(Nc3ccc(C)cc3)c3c2C(=O)c2c(O)ccc(O)c2C3=O)cc1 | > 100 µM (inactive) |  |  | 75.2 µM (inactive) | > 100 µM (inactive) | 68.1 µM (inactive) | > 100 µM (inactive) | > 100 µM (inactive) |  |
| COC(=O)C1C(O)CC(c2ccccn2)N(Cc2ccccc2)C1c1ccccn1 (stereo unspecified) | > 100 µM (inactive) | > 100 µM (inactive) | > 100 µM (inactive) | > 100 µM (inactive) | > 100 µM (inactive) | > 100 µM (inactive) |  | > 100 µM (inactive) | > 100 µM (inactive) |
| CC1=C(C(=O)Nc2cccc(C(F)(F)F)c2)C(c2ccccc2F)C(C(=O)Nc2cccc(C(F)(F)F)c2)=C(C)N1 | 3.33 µM (inactive) |  | 4.51 µM (inactive) | 5.57 µM (inactive) | 7.45 µM (inactive) | 13.9 µM (inactive) | 2.09 µM (inactive) |  | 10 µM (inactive) |
